Measured values published in PubChem BioAssay (NCI).
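The compound was tested at five concentrations on cells cultured in 96-well plates, with a 48-hour exposure period. The concentration for 50% growth inhibition is given as GI50. At the TGI there is no net growth.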

Columns and labels:
Assay in all cases: inhibition of tumour cell growth, NCI panel, 48 h
ACHN renal = tested on: ACHN renal
NCI/ADR-RES ovarian = tested on: NCI/ADR-RES ovarian
HT29 colon = tested on: HT29 colon
SNB-19 CNS = tested on: SNB-19 CNS
LOX IMVI melanoma = tested on: LOX IMVI melanoma
SN12C renal = tested on: SN12C renal
IGROV1 ovarian = tested on: IGROV1 ovarian
RPMI-8226 leukemia = tested on: RPMI-8226 leukemia
HCC-2998 colon = tested on: HCC-2998 colon
BT-549 breast = tested on: BT-549 breast
UACC-62 melanoma = tested on: UACC-62 melanoma
MDA-MB-231 breast = tested on: MDA-MB-231 breast
PC-3 prostate = tested on: PC-3 prostate
SNB-75 CNS = tested on: SNB-75 CNS
NCI-H23 lung = tested on: NCI-H23 lung
SF-295 CNS = tested on: SF-295 CNS
HOP-62 NSCLC = tested on: HOP-62 NSCLC
HL-60(TB) leukemia = tested on: HL-60(TB) leukemia
OVCAR-3 ovarian = tested on: OVCAR-3 ovarian
SW-620 colon = tested on: SW-620 colon
OVCAR-8 ovarian = tested on: OVCAR-8 ovarian
UACC-257 melanoma = tested on: UACC-257 melanoma
HS 578T breast = tested on: HS 578T breast
HOP-92 NSCLC = tested on: HOP-92 NSCLC
TK-10 renal = tested on: TK-10 renal
SK-MEL-2 melanoma = tested on: SK-MEL-2 melanoma
SF-539 CNS = tested on: SF-539 CNS
MALME-3M melanoma = tested on: MALME-3M melanoma
SK-MEL-5 melanoma = tested on: SK-MEL-5 melanoma
COLO 205 colon = tested on: COLO 205 colon
DU-145 prostate = tested on: DU-145 prostate
KM12 colon = tested on: KM12 colon
U251 CNS = tested on: U251 CNS
M14 melanoma = tested on: M14 melanoma
SK-OV-3 ovarian = tested on: SK-OV-3 ovarian
MCF7 breast = tested on: MCF7 breast
786-0 renal = tested on: 786-0 renal
CCRF-CEM leukemia = tested on: CCRF-CEM leukemia
SF-268 CNS = tested on: SF-268 CNS
T-47D breast = tested on: T-47D breast
NCI-H522 lung = tested on: NCI-H522 lung
OVCAR-5 ovarian = tested on: OVCAR-5 ovarian
A549 NSCLC = tested on: A549 NSCLC
CAKI-1 renal = tested on: CAKI-1 renal
HCT-15 colon = tested on: HCT-15 colon
K-562 leukemia = tested on: K-562 leukemia
SK-MEL-28 melanoma = tested on: SK-MEL-28 melanoma
MOLT-4 leukemia = tested on: MOLT-4 leukemia
MDA-MB-435 = tested on: MDA-MB-435
SR leukemia = tested on: SR leukemia
NCI-H460 lung = tested on: NCI-H460 lung
HCT-116 colon = tested on: HCT-116 colon
RXF 393 renal = tested on: RXF 393 renal

`Cn1cc(C2=C(c3cn(C4CCN(Cc5ccccn5)CC4)c4ccccc34)C(=O)NC2=O)c2ccccc21` was tested, and the GI50 (ACHN renal) was 9.36 µM, the TGI (ACHN renal) was > 100 µM and the GI50 (NCI/ADR-RES ovarian) was 4.34 µM. For the same compound, the TGI (NCI/ADR-RES ovarian) was > 100 µM, the GI50 (HT29 colon) was 2.4 µM and the TGI (HT29 colon) was > 100 µM. For the same compound, the GI50 (SNB-19 CNS) was > 70.2 µM, the TGI (SNB-19 CNS) was > 100 µM and the GI50 (LOX IMVI melanoma) was 4.9 µM. For the same compound, the TGI (LOX IMVI melanoma) was > 100 µM, the GI50 (SN12C renal) was > 100 µM and the TGI (SN12C renal) was > 100 µM. The GI50 (IGROV1 ovarian) was 9.7 µM, the TGI (IGROV1 ovarian) was > 100 µM and the GI50 (RPMI-8226 leukemia) was 3.93 µM. For the same compound, the TGI (RPMI-8226 leukemia) was > 100 µM, the GI50 (HCC-2998 colon) was > 100 µM and the TGI (HCC-2998 colon) was > 100 µM. The GI50 (BT-549 breast) was 7.56 µM, the TGI (BT-549 breast) was > 100 µM and the GI50 (UACC-62 melanoma) was 5.12 µM. For the same compound, the TGI (UACC-62 melanoma) was > 100 µM, the GI50 (MDA-MB-231 breast) was > 100 µM and the TGI (MDA-MB-231 breast) was > 100 µM. The GI50 (PC-3 prostate) was 3.97 µM, the TGI (PC-3 prostate) was > 100 µM and the GI50 (SNB-75 CNS) was 0.358 µM. For the same compound, the TGI (SNB-75 CNS) was 9.74 µM, the GI50 (NCI-H23 lung) was 6.31 µM and the TGI (NCI-H23 lung) was > 100 µM. The GI50 (SF-295 CNS) was 3.49 µM, the TGI (SF-295 CNS) was > 26.1 µM and the GI50 (HOP-62 NSCLC) was 12.1 µM. The TGI (HOP-62 NSCLC) was 54.9 µM, the GI50 (HL-60(TB) leukemia) was 3.97 µM and the TGI (HL-60(TB) leukemia) was > 100 µM. The GI50 (OVCAR-3 ovarian) was 3.82 µM, the TGI (OVCAR-3 ovarian) was > 100 µM and the GI50 (SW-620 colon) was 4.02 µM. The TGI (SW-620 colon) was > 100 µM, the GI50 (OVCAR-8 ovarian) was 6.23 µM and the TGI (OVCAR-8 ovarian) was > 100 µM. For the same compound, the GI50 (UACC-257 melanoma) was 4.73 µM, the TGI (UACC-257 melanoma) was > 100 µM and the GI50 (HS 578T breast) was 3.75 µM. The TGI (HS 578T breast) was > 72.1 µM, the GI50 (HOP-92 NSCLC) was 83.2 µM and the TGI (HOP-92 NSCLC) was > 100 µM. The GI50 (TK-10 renal) was > 41.5 µM, the TGI (TK-10 renal) was > 100 µM and the GI50 (SK-MEL-2 melanoma) was 3.08 µM. The TGI (SK-MEL-2 melanoma) was 47.5 µM, the GI50 (SF-539 CNS) was 3.03 µM and the TGI (SF-539 CNS) was > 100 µM. For the same compound, the GI50 (MALME-3M melanoma) was > 23.4 µM, the TGI (MALME-3M melanoma) was > 100 µM and the GI50 (SK-MEL-5 melanoma) was 2.94 µM. The TGI (SK-MEL-5 melanoma) was > 25.9 µM, the GI50 (COLO 205 colon) was 3.08 µM and the TGI (COLO 205 colon) was > 100 µM. For the same compound, the GI50 (DU-145 prostate) was > 100 µM, the TGI (DU-145 prostate) was > 100 µM and the GI50 (KM12 colon) was 3.85 µM. The TGI (KM12 colon) was > 100 µM, the GI50 (U251 CNS) was 3.74 µM and the TGI (U251 CNS) was > 100 µM. For the same compound, the GI50 (M14 melanoma) was 4.61 µM, the TGI (M14 melanoma) was > 100 µM and the GI50 (SK-OV-3 ovarian) was 5.55 µM. The TGI (SK-OV-3 ovarian) was > 100 µM, the GI50 (MCF7 breast) was 3.23 µM and the TGI (MCF7 breast) was > 100 µM. The GI50 (786-0 renal) was 8.43 µM, the TGI (786-0 renal) was > 91.1 µM and the GI50 (CCRF-CEM leukemia) was 3.75 µM. For the same compound, the TGI (CCRF-CEM leukemia) was > 100 µM, the GI50 (SF-268 CNS) was > 36.8 µM and the TGI (SF-268 CNS) was > 100 µM. For the same compound, the GI50 (T-47D breast) was 5.45 µM, the TGI (T-47D breast) was > 100 µM and the GI50 (NCI-H522 lung) was 4.19 µM. For the same compound, the TGI (NCI-H522 lung) was > 100 µM, the GI50 (OVCAR-5 ovarian) was > 100 µM and the TGI (OVCAR-5 ovarian) was > 100 µM. The GI50 (A549 NSCLC) was 4.92 µM, the TGI (A549 NSCLC) was > 100 µM and the GI50 (CAKI-1 renal) was > 21.6 µM. For the same compound, the TGI (CAKI-1 renal) was > 100 µM, the GI50 (HCT-15 colon) was 3.44 µM and the TGI (HCT-15 colon) was > 100 µM. For the same compound, the GI50 (K-562 leukemia) was 3.87 µM, the TGI (K-562 leukemia) was > 100 µM and the GI50 (SK-MEL-28 melanoma) was 6.07 µM. For the same compound, the TGI (SK-MEL-28 melanoma) was > 100 µM, the GI50 (MOLT-4 leukemia) was 3.52 µM and the TGI (MOLT-4 leukemia) was > 100 µM. For the same compound, the GI50 (MDA-MB-435) was 2.87 µM, the TGI (MDA-MB-435) was > 100 µM and the GI50 (SR leukemia) was 3.19 µM. For the same compound, the TGI (SR leukemia) was > 100 µM, the GI50 (NCI-H460 lung) was 4.92 µM and the TGI (NCI-H460 lung) was > 100 µM. For the same compound, the GI50 (HCT-116 colon) was 3.03 µM, the TGI (HCT-116 colon) was > 100 µM and the GI50 (RXF 393 renal) was 2.59 µM. For the same compound, the TGI (RXF 393 renal) was 25.3 µM.
